Assay results taken from patent publication US20090155272A1, “Targeted pharmaceuticals and ligands” (priority 2005, published 2009).
Peptide text beside a SMILES is read from it. * marks the point of attachment. Decanoyl = CCCCCCCCCC(=O)*; CH2Cl = ClC*

How the values were obtained:
β-DG = experiment: Metalloprotease-dependent shedding and cleavage of dystroglycan in cultured cells (immunoblot); format: cell-based; details: incubation of the cells with inhibitor
Method: FIG. 6A-B depicts a modification of dystroglycan by metalloprotease activity. (A) Structure of α-DG and β-DG. α-DG associates non-covalently with β-DG, which spans the plasma membrane. O-linked glycosylation is shown as a chain of circles of varying length, whereas N-linked glycosylation is shown as branches. (B) Immunoblot analysis of α-DG and β-DG levels in cell lines cultured in the presence or absence of the MP inhibitor BB-2516. Cells were cultured in serum-free medium for two days with or without BB-2516 and then total cellular proteins were extracted and subjected to immunoblot analysis of α-DG and β-DG.
To confirm that metalloprotease activity is indeed blocked by the GM6001, the cleavage of known molecules is monitored. Using identically treated cell populations, proteins are extracted and analyzed by immunoblot. These controls include detecting the cleavage of the β-DG subunit, which is evidenced by a shift in the molecular mass of this protein from 43 kDa to 31 kDa in MDA-MB-231 cells using an antibody binding the β-DG cytoplasmic domain (see FIG. 6).
For example, metalloprotease cleavage events are responsible for the shedding of β-DG from the cell surface, and for direct cleavage of the extracellular domain of β-DG, which is detected by the reduction in the molecular mass of β-DG from 43 kD to 31 kD. Both the shedding of β-DG, and the cleavage of β-DG are blocked by the incubation of the cells with the broad-spectrum MMP inhibitors GM6001 or BB2516. Detection of the cleaved form of p-DG can be completely eliminated after just 24 hours exposure to the MMP inhibitor.

α-DG = experiment: Immunoprecipitation of the DG complex after furin inhibitor treatment; format: cell-based; details: EpH4, MDA-MB-231 and MDA-MB-468 cells
known metalloproteases = details: 50 μM; cited from earlier work
[1] = test system: BT474 and MDA-MB-231 cells; details: 50 μM, extended periods of time; cited from earlier work

Row | SMILES | cleavage of β-DG (43 kD to 31 kD) (β-DG) | shedding of β-DG from the cell surface (β-DG) | α-DG band position (α-DG) | block of activity of known metalloproteases (known metalloproteases) | cell viability on extended exposure [1]
1 | CNC(=O)[C@@H](NC(=O)[C@H](CC(C)C)[C@H](O)C(=O)NO)C(C)(C)C [BB2516] | blocked | blocked |  |  | 
2 | CCCCCCCCCC(=O)N[C@@H](CCCN=C(N)N)C(=O)N[C@H](C(=O)N[C@@H](CCCCN)C(=O)N[C@@H](CCCN=C(N)N)C(=O)CCl)C(C)C [CMK] (Decanoyl-RVKR-CH2Cl) |  |  | shifted upward in all cells |  | 
3 | CNC(=O)[C@H](Cc1c[nH]c2ccccc12)NC(=O)[C@@H](CC(=O)NO)CC(C)C [GM6001] | blocked | blocked |  | more than sufficient to block the activity of known metalloproteases | without loss of cell viability
